Test results taken from US20030055018A1, “Modulation of phosphoinositide 3-kinase activity” (priority 2001, published 2003).

Experiments:
HaCaT cells = assay: Suspension survival assay of HaCaT keratinocytes; assay type: cell-based, human
Procedure: FIG. 8 is presented to complementary roles of tyrosine kinase and small GTPase signals induced by integrin or growth factor stimulation, in PI3K/Akt activation and cell survival. […] Akt kinase activity in cell lysates harvested 30 minutes later was measured by in vitro phosphorylation of H2B. […] HaCaT cells or HaCaT cells stably-expressing activated H-Ras G12V were cultured on 0.9% agarose in MCDB base medium. EGF was used at 2 nM concentration in the indicated culltures. Cell aliquots were removed after 6 hours in suspension for immunoblot analysis. Cell viability was examined after 10 days in suspension as described (Jost et al., 2001, Mol Biol Cell 12, 1519-27). (C) A model of PI3K activation by tyrosine kinase- and small GTPase signals. According to this model, p85 binds, via its cSH2 motif, tyrosine phosphorylated proteins and undergoes phosphorylation at Y688. Phosphorylation at this site, functionally inactivates the p85 inhibitory domain. Neutralization of the inhibitory domain renders p85 responsive to PI3K activation signals that are transduced by small GTPases.
These experiments were carried out in serum-free define media. The constitutively-active H-Ras G12V activates the PI3K/Akt pathway and rescues cells from anoikis only in suspension cultures supplemented with epidermal growth factor (EGF) (FIG. 8B). […] Thus, PI3K/Akt activation and inhibition of anoikis depend on the combination of tyrosine kinase and small GTPase signals.
Suspension survival assay were performed as previously described (Jost et al., 2001, Mol Biol Cell 12, 1519-27). […] Cell viability was measured after 10 days in suspension. Cell viability was analysed by crystal violet staining of cells reseeded after 10 days of suspension culture onto tissue culture-treated plastic and allowed to grow for 3 days. […]

PI3K = assay: PtdIns-3,4,5-P3 measured by thin layer chromatography in lipid extracts of 32P-labeled transfected NIH3T3 cells; assay type: cell-based, mouse; details: construct co-transfected with constitutively-active H-Ras G12V; serum-free; 32P-orthophosphate 1.5 h
Procedure: In FIG. 1, it is shown that p85 inhibits while p85Δonc enhances PI3K activation by small GTPases. (A) Schematic diagrams and expression of transiently transfected HA-tagged p85-WT and p85Δonc constructs. (B) Upper panel. p85-WT inhibits while p85Δonc enhances HRas-induced PtdIns-3, 4, 5-P3 production. The indicated constructs were transiently transfected into NIH3T3 cells. Sixteen hours after transfection, the cells were cultured in serum-free media. Five hours later, they were labeled with ^32P-orthophosphate for 1.5 hours. Total phospholipids were analyzed by thin layer chromatography. (B) Lower panel. p85-WT inhibits while p85Δonc enhances H-Ras induced Akt phosphorylation. Immunoblots of cell extracts from duplicate transfections were probed with an antibody that recognizes Akt phosphorylated at Thr308 or with antibodies that recognize the proteins expressed from the transfected constructs. […] NIH3T3 cells were transiently transfected with the indicated constructs. ^32P-labeled PtdIns-3, 4, 5-P3 was measured as described in B. Akt phosphorylation at Thr308 and expression of transfected constructs were determined by probing immunoblots with the corresponding antibodies. […]
PtdIns-3, 4, 5-P3 was measured in lipid extracts of ^32P-labeled NIH3T3 cells by thin layer chromatography (Maehama et al., 1998, J Biol Chem 273, 13375-8). […]

PI3K/Akt pathway = assay: Akt activation in transfected NIH3T3 cells (H2B phosphorylation by immunoprecipitated FLAG-Akt, or Akt Thr308 immunoblot); assay type: cell-based, mouse
Text: Specifically, to show whether membrane-associated full-length p85 is functionally similar to the carboxy-terminally truncated protein the p85 fused at its amino-terminus to a peptide encoding the Src myristoylation signal (Myrp85-WT) (FIG. 2A), was transiently expressed in NIH3T3 cells in combination with FLAG-Akt or FLAG-Akt plus H-Ras. Myrp85Δonc was used as a control. The cells were lysed forty-eight hours later, following overnight serum starvation. Akt activation in this, and subsequent experiments, was determined by measuring the phosphorylation of histone 2B (H2B) by immunoprecipitated Akt.
Akt/PKB activation by phosphorylation strictly depends on the binding of the Akt PH domain to PtdIns-3,4,5-P3 and therefore, indirectly measures intracellular PtdIns-3,4,5-P3 levels (Chan et al., 1999, Ann Rev Biochem 68, 965-1015). Akt/PKB kinase activation was determined either by measuring the phosphorylation of Akt at Thr308 using an antibody from Cell Signaling Technology or by measuring the kinase activity of immunoprecipitated FLAG-tagged wild type Akt. The activity of immunoprecepitated Akt was measured using Histone 2B as the substrate, and following previously described protocols (Bellacosa et al., 1998, Oncogene 17, 313-25; Franke et al., 1995, Cell 81, 727-736) with slight modifications. Briefly, cells were lysed on ice using a NP40 lysis buffer (25 mM Tris-HCl pH 7.6, 137 mM NaCl, 10% glycerol, 1% NP40, 10 mM NaF) freshly supplemented with 1 mM Sodium pyrophosphate, 5 μg/ml leupeptin, 5 μg/ml aprotinin, 1 mM EDTA, 10 mM PMSF, 1 mM NaVO4 and 1 mM DTT. […] The phosphorylated Histone H2B was visualized by autoradiography and quantitated by Phosphorlmager (Molecular Dynamics). Akt expression was determined by probing the membranes with a polyclonal rabbit anti-Akt antibody.
Specific Akt kinase activity was determined by Phosphorimager-quantitation of the ^32P-phosphorylated Akt substrate Histone 2B, and by quantification of Akt in anti-Akt immunoprecipitates using a laser densitometry scanner (Molecular Dynamics). […]

Substance	Long-term cell survival (10 days) in suspension, cells expressing activated H-Ras G12V (HaCaT cells; EGF 2 nM, serum-free defined medium)	Rescue from anoikis, HaCaT cells without H-Ras G12V (HaCaT cells; EGF alone, 2 nM)	PI3K/Akt activation, HaCaT cells without H-Ras G12V (HaCaT cells; EGF alone, 2 nM, 6 hours in suspension)	H-Ras-induced PtdIns-3, 4, 5-P3 production (PI3K)	PI3K activation by Ras signals in the presence of NM-Src (PI3K/Akt pathway; H-Ras-G12V plus NM-Src, PtdIns-3,4,5-P3 and Akt Thr308)	H-Ras induced Akt phosphorylation at Thr308 (PI3K/Akt pathway; co-transfected with H-Ras G12V, immunoblot)	PI3K/Akt activation by H-Ras (Akt kinase activity, H2B phosphorylation) (PI3K/Akt pathway; co-transfected with constitutively-active H-Ras and FLAG-Akt, overnight serum starvation)
epidermal growth factor (NSDSECPLSHDGYCLHDGVCMYIEALDKYACNCVVGYIGERCQYRDLKWWELR; Epidermal growth factor; UniProt P01133 971-1023, looked up) [EGF]	cooperate to support long-term cell survival	failed to rescue	inefficient				
p85-WT: HA-tagged construct of wild-type p85, regulatory subunit of PI3K				inhibits	does not inhibit	inhibits	blocks
